In ChEMBL document CHEMBL3769397, “A new GLP-1 analogue with prolonged glucose-lowering activity in vivo via backbone-based modification at the N-terminus” (Bioorg Med Chem, 2016):

How the values were obtained:
[1] = target: Glucagon-like peptide 1 receptor (Homo sapiens, UniProt P43220); test: Activation of human GLP1R expressed in HEK293 cells preincubated for 30 mins followed by addition of cAMP-d2 conjugate/cryptate conjugate incubated for 60 mins by fluorescence analysis; type: functional, cell-based
[2] = target: T1, DPP4 (dipeptidyl peptidase 4) (Homo sapiens, UniProt P27487); test: Half life of compound assessed as recombinant human DPP4-mediated cleavage by RP-HPLC analysis; type: ADME
[3] = Retention time of compound over 30 mins by HPLC analysis; type: physicochemical; conditions: 0.5 h
[4] = system: Mus musculus; test: Reduction in blood glucose in Kunming mouse assessed as blood glucose level at 25 nmol/kg, ip at administered 0 mins followed by first glucose challenge at 40 mins followed by second glucose challenge at 310 mins and measured at 40 mins by glucose tolerance test (reference value: 4.9 to 6.3 mmol/L); type: functional
[5] = target: T1, DPP4 (dipeptidyl peptidase 4); test: Drug degradation assessed as recombinant human DPP4-mediated cleavage by measuring compound remaining after 12 hrs by RP-HPLC analysis; type: ADME; conditions: read-out: Stability
[6] = target: T1, DPP4 (dipeptidyl peptidase 4); test: Drug degradation assessed as recombinant human DPP4-mediated cleavage by measuring compound remaining after 24 hrs by RP-HPLC analysis; type: ADME; conditions: read-out: Stability
[7] = target: T1, DPP4 (dipeptidyl peptidase 4); test: Drug degradation assessed as recombinant human DPP4-mediated cleavage by measuring compound remaining after 48 hrs by RP-HPLC analysis; type: ADME; conditions: read-out: Stability
[8] = target: T1, DPP4 (dipeptidyl peptidase 4); test: Drug degradation assessed as recombinant human DPP4-mediated cleavage by measuring compound remaining after 72 hrs by RP-HPLC analysis; type: ADME; conditions: read-out: Stability
[9] = target: T1, DPP4 (dipeptidyl peptidase 4); test: Drug degradation assessed as recombinant human DPP4-mediated cleavage by measuring compound remaining after 96 hrs by RP-HPLC analysis; type: ADME; conditions: read-out: Stability
[10] = system: Mus musculus; test: Reduction in blood glucose in Kunming mouse assessed as blood glucose level at 25 nmol/kg, ip at administered 0 mins followed by first glucose challenge at 40 mins followed by second glucose challenge at 310 mins and measured at 385 mins by glucose tolerance test (reference value: 4.9 to 6.3 mmol/L); type: functional
[11] = system: Mus musculus; test: Reduction in blood glucose in Kunming mouse assessed as blood glucose level at 25 nmol/kg, ip at administered 0 mins followed by first glucose challenge at 40 mins followed by second glucose challenge at 310 mins and measured at 350 mins by glucose tolerance test (reference value: 4.9 to 6.3 mmol/L); type: functional
[12] = system: Mus musculus; test: Reduction in blood glucose in Kunming mouse assessed as blood glucose level at 25 nmol/kg, ip at administered 0 mins followed by first glucose challenge at 40 mins followed by second glucose challenge at 310 mins and measured at 55 mins by glucose tolerance test (reference value: 4.9 to 6.3 mmol/L); type: functional
[13] = system: Mus musculus; test: Reduction in blood glucose in Kunming mouse assessed as blood glucose level at 25 nmol/kg, ip at administered 0 mins followed by first glucose challenge at 40 mins followed by second glucose challenge at 310 mins and measured at 80 mins by glucose tolerance test (reference value: 4.9 to 6.3 mmol/L); type: functional
[14] = system: Mus musculus; test: Reduction in blood glucose in Kunming mouse assessed as blood glucose level at 25 nmol/kg, ip at administered 0 mins followed by first glucose challenge at 40 mins followed by second glucose challenge at 310 mins and measured at 115 mins by glucose tolerance test (reference value: 4.9 to 6.3 mmol/L); type: functional
[15] = system: Mus musculus; test: Reduction in blood glucose in Kunming mouse assessed as blood glucose level at 25 nmol/kg, ip at administered 0 mins followed by first glucose challenge at 40 mins followed by second glucose challenge at 310 mins and measured at 160 mins by glucose tolerance test (reference value: 4.9 to 6.3 mmol/L); type: functional
[16] = system: Mus musculus; test: Reduction in blood glucose in Kunming mouse assessed as blood glucose level at 25 nmol/kg, ip at administered 0 mins followed by first glucose challenge at 40 mins followed by second glucose challenge at 310 mins and measured at 310 mins by glucose tolerance test (reference value: 4.9 to 6.3 mmol/L); type: functional
[17] = system: Mus musculus; test: Reduction in blood glucose in Kunming mouse assessed as blood glucose level at 25 nmol/kg, ip at administered 0 mins followed by first glucose challenge at 40 mins followed by second glucose challenge at 310 mins and measured at 325 mins by glucose tolerance test (reference value: 4.9 to 6.3 mmol/L); type: functional
[18] = system: Mus musculus; test: Reduction in blood glucose in Kunming mouse assessed as blood glucose level at 25 nmol/kg, ip at administered 0 mins followed by first glucose challenge at 40 mins followed by second glucose challenge at 310 mins and measured at 430 mins by glucose tolerance test (reference value: 4.9 to 6.3 mmol/L); type: functional
[19] = system: Mus musculus; test: Reduction in blood glucose in Kunming mouse assessed as blood glucose peak value at 25 nmol/kg, ip at administered 0 mins followed by first glucose challenge at 40 mins measured at 80 mins by glucose tolerance test relative to control; type: functional; design: scale not given: the % may be the effect or the level left
[20] = system: Mus musculus; test: Reduction in blood glucose in Kunming mouse assessed as blood glucose peak value at 25 nmol/kg, ip at administered 0 mins followed by first glucose challenge at 40 mins followed by second glucose challenge at 310 mins and measured at 325 mins by glucose tolerance test relative to control; type: functional; design: scale not given: the % may be the effect or the level left
[21] = system: Mus musculus; test: Reduction in blood glucose in Kunming mouse assessed as blood glucose AUC at 25 nmol/kg, ip at administered 0 mins followed by first glucose challenge at 40 mins measured at 80 mins by glucose tolerance test relative to control; type: functional; design: scale not given: the % may be the effect or the level left
[22] = system: Mus musculus; test: Reduction in blood glucose in Kunming mouse assessed as blood glucose AUC at 25 nmol/kg, ip at administered 0 mins followed by first glucose challenge at 40 mins followed by second glucose challenge at 310 mins and measured at 325 mins by glucose tolerance test relative to control; type: functional; design: scale not given: the % may be the effect or the level left

T1 sequence (P27487 whole entry): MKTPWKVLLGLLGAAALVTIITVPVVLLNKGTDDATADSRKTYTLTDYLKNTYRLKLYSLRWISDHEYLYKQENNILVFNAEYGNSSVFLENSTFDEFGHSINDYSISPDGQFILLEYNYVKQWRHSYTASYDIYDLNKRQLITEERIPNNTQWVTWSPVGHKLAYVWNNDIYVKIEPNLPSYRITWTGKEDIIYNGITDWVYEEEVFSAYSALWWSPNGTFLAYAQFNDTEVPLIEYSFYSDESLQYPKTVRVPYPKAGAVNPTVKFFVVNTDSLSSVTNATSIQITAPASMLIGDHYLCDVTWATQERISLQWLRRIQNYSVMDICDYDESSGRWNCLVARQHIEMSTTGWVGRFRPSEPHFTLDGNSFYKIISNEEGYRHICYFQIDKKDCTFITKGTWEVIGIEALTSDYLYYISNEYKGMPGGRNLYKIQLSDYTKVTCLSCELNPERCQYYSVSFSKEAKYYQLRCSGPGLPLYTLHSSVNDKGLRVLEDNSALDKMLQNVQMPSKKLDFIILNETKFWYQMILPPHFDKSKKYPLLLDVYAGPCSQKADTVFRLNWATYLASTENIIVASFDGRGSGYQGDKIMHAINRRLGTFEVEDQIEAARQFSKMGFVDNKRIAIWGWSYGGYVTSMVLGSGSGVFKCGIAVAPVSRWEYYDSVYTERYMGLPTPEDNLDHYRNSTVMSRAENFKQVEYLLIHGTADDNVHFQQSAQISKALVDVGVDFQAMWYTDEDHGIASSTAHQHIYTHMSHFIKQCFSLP
Glucagon-like peptide 1 receptor, sequence (P43220 whole entry): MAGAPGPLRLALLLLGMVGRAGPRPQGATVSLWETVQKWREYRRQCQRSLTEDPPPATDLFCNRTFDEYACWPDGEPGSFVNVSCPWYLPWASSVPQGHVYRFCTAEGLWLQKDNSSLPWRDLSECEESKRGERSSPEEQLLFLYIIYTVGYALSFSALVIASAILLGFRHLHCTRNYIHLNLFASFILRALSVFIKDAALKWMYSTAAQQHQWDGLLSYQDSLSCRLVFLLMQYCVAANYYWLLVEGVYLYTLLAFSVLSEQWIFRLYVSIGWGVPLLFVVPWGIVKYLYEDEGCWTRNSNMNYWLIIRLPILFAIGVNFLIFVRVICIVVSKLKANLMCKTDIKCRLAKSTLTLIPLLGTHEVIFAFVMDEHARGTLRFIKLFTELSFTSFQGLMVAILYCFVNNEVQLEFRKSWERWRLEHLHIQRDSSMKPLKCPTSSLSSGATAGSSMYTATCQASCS

With `CC[C@H](C)[C@H](NC(=O)[C@H](Cc1ccccc1)NC(=O)[C@H](CCC(=O)O)NC(=O)[C@H](CCCCN)NC(=O)[C@H](C)NC(=O)[C@H](C)NC(=O)[C@H](CCC(N)=O)NC(=O)CNC(=O)[C@H](CCC(=O)O)NC(=O)[C@H](CC(C)C)NC(=O)[C@H](Cc1ccc(O)cc1)NC(=O)[C@H](CO)NC(=O)[C@H](CO)NC(=O)[C@@H](NC(=O)[C@H](CC(=O)O)NC(=O)[C@H](CO)NC(=O)[C@@H](NC(=O)[C@H](Cc1ccccc1)NC(=O)[C@@H](NC(=O)CNC(=O)[C@H](CCC(=O)O)NC(=O)CCNC(=O)[C@@H](N)Cc1cnc[nH]1)[C@@H](C)O)[C@@H](C)O)C(C)C)C(=O)N[C@@H](C)C(=O)N[C@@H](Cc1c[nH]c2ccccc12)C(=O)N[C@@H](CC(C)C)C(=O)N[C@H](C(=O)N[C@@H](CCCCN)C(=O)NCC(=O)N[C@@H](CCCNC(=N)N)C(N)=O)C(C)C` the EC50 [1] was 0.0329 nM, the half-life [2] was > 96 h and the Retention_time [3] was 13.751 min. It also gave an Activity [4] of 6.5 mmol/L, a remaining at 12 h [5] of 100% and a remaining at 24 h [6] of 100%. The remaining at 48 h [7] was 100%, the remaining at 72 h [8] was 100% and the remaining at 96 h [9] was 100%. For the same compound, the Activity [10] was 9.8 mmol/L, the Activity [11] was 16.8 mmol/L and the Activity [12] was 12.8 mmol/L. It also gave an Activity [13] of 16 mmol/L, an Activity [14] of 11.8 mmol/L and an Activity [15] of 7.8 mmol/L. It also gave an Activity [16] of 6.3 mmol/L, an Activity [17] of 19.6 mmol/L and an Activity [18] of 6.8 mmol/L. For the same compound, the Activity [19] was 61%, the Activity [20] was 84% and the Activity [21] was 63%. For the same compound, the Activity [22] was 81%.
